Laboratory results: patent publication US20250275964A1, “METHODS OF INHIBITING LIVER-TYPE GLUTAMINASE, GLS2” (CORNELL UNIVERSITY, priority 2019, published 2025)

How the values were obtained:
[1] = test system: MCF7 cells; assay: 6-day cell proliferation assay, MCF7; assay type: cell-based, human; conditions: MCF7, proliferation over 6 days
Method: (§1) Human breast cancer cell lines MCF7, BT-474, T-47D, MDA-MB-453, MDA-MB-231, Hs 578T, HCC38, SK-BR-3, and DU4475 were purchased from the American Type Culture Collection (ATCC) and no additional cell authentication was performed. The TSE human breast cancer cell line was supplied by Dr. Steven Abcouwer (University of Michigan). All breast cancer cells were cultured at 37° C. under a 5% CO2 atmosphere in RPMI 1640 medium containing 2 mM glutamine (Gibco) and supplemented with 10% fetal bovine serum (FBS) (Gibco). The 293T cell line (ATCC) used for generating lentivirus particles was cultured as above but using DMEM, high glucose (Gibco).
(§2) Culture medium was added to 12-well plates (1 ml/well) and wells were seeded with cells at Day 0 as follows. MCF7, T-47D, BT-474, HCC38 cells: […] cells/well. MDA-MB-453 and MDA-MB-231 cells: 1×10^4 cells/well. TSE and Hs 578T cells: 0.3×10^4 cells/well. After 16 hours, culture medium was replaced with fresh medium supplemented with appropriate concentrations of inhibitors and was subsequently replaced every 48 hours. On Day 6 cells were trypsinized and suspended in an appropriate volume of culture medium, and the total number of cells per well was determined using a hemocytometer or a TC20 Automated Cell Counter (Bio-Rad).

[2] = test system: BT-474 cells; assay: 6-day cell proliferation assay, BT-474; assay type: cell-based, human; conditions: BT-474, proliferation over 6 days
Method: as §1, §2

[3] = test system: MDA-MB-453 cells; assay: 6-day cell proliferation assay, MDA-MB-453; assay type: cell-based, human; conditions: MDA-MB-453, proliferation over 6 days
Method: as §1, §2

[4] = test system: MDA-MB-231 cells; assay: 6-day cell proliferation assay, MDA-MB-231; assay type: cell-based, human
Method: as §1, §2

[5] = test system: Hs 578T cells; assay: 6-day cell proliferation assay, Hs 578T; assay type: cell-based, human; conditions: proliferation over 6 days
Method: as §1, §2

[6] = test system: HCC38 cells; assay: 6-day cell proliferation assay, HCC38; assay type: cell-based, human; conditions: HCC38, proliferation over 6 days
Method: as §1, §2

[7] = test system: MDA-MB-231 cells carrying the plasmid vector only; assay: 6-day cell proliferation assay, MDA-MB-231 vector only; assay type: cell-based, human; conditions: 6 days
Method: as §2
(§3) Vectors for expressing human GAC or GLS2 in breast cancer cell lines were based on pCDNA3.1/V5-His TOPO (Thermo Fisher Scientific), with the appropriate gene sub-cloned in and the tag switched to HA-tag or myc-tag for immunofluorescence experiments. Vectors pQE80-GAC-72-598 and pQE80-GLS2-38-602, for expressing the processed forms of human GAC (residues 72 to 598) or GLS2 (residues 38 to 602) in E. coli, were described in Huang et al., “Characterization of the Interactions of Potent Allosteric Inhibitors with Glutaminase C, a Key Enzyme in Cancer Cell Glutamine Metabolism,” J. Biol. Chem. 293:3535-3545 (2018), which is hereby incorporated by reference in its entirety.
(§4) For 60 mm dish format. […]

[8] = test system: MDA-MB-231 cells stably expressing GLS2; assay: 6-day cell proliferation assay, MDA-MB-231 stably expressing GLS2; assay type: cell-based, human
Method: as §2, §3
(§5) For 60 mm dish format. 0.2 ml Opti-MEM (Gibco) containing […] of the appropriate DNA construct, along with 0.2 ml Opti-MEM containing 12 μl Lipofectamine 2000 (Invitrogen), were separately incubated at room temperature for 5 min. The two solutions were combined and incubated for an additional 20 min, mixed with 1.6 ml culture medium and added to cells. After 5 hours incubation at 37° C. the transfection mixture was replaced with fresh culture medium, and cells were then incubated for an additional 48 hours to allow for ectopic expression of GLS or GLS2. To select for cells stably expressing the DNA construct, culture medium supplemented with 500 μg/ml G-418 disulfate (Research Products International) was added and replaced every 2 days for 2-3 weeks until isolated colonies ˜2 mm in diameter were present. Individual colonies were transferred to a 12-well plate (1 colony per well) using sterile blotting paper soaked in trypsin solution and were then cultured in medium supplemented with 250 μg/ml G-418 disulfate. All colonies were screened by western blot for ectopic expression, and positive clones were maintained in medium supplemented with 250 μg/ml G-418 disulfate.

[9] = test system: TSE cells carrying the plasmid vector only; assay: 6-day cell proliferation assay, TSE vector only; assay type: cell-based, human; conditions: 6 days
Method: as §2, §3, §4

[10] = test system: TSE cells stably expressing GLS2; assay: 6-day cell proliferation assay, TSE stably expressing GLS2; assay type: cell-based, human
Method: as §2, §3, §5

[11] = test system: DU4475 cells; assay: 6-day cell proliferation assay, DU4475; assay type: cell-based, human; conditions: DU4475, proliferation over 6 days
Method: as §1, §2

[12] = test system: MDA-MB-453 xenograft tumors; assay: MDA-MB-453 xenograft tumor growth in mice; assay type: in vivo; conditions: 10 mg/kg, 3 times per week from Day 14 for three weeks, NSG mice
Method: All experiments involving mice were carried out according to protocols approved by the Institutional Animal Care and Use Committee at Cornell University. In all cases, 6-8 week old female NOD.Cg-Prkdcscid Il2rg^tm1Wjl/SzJ (NSG) mice (The Jackson Laboratory) were used. For xenograft experiments, a suspension of MDA-MB-453 breast cancer cells (or derivative cell lines stably expressing shRNAs) was mixed 1:1 with Matrigel Matrix (BD Biosciences) to give a final concentration of 3×10^6 cells per 100 μl, and 3×10^6 cells were immediately injected into each of the two flanks of 6-8 week old female NOD.Cg-Prkdc^scid Il2rg^tm1Wjl/SzJ (NSG) mice (n=3 mice per condition). Tumor sizes were measured using calipers, and estimated volumes were calculated using the formula V=(π/6)×length×width^2, as described previously (Tomayko et al., “Determination of Subcutaneous Tumor Size in Athymic (Nude) Mice,” Cancer Chemother Pharmacol. 24:148-154 (1989), which is hereby incorporated by reference in its entirety). For experiments using MDA-MB-453 cells stably expressing shRNAs, mice were sacrificed after 6 weeks. For 968 treatment studies, when tumors of 1-2 mm diameter were detected, the mice were randomly divided into two groups and intraperitoneal (IP) injections of 968 (10 mg/kg) solution or carrier solution were initiated and carried out three times weekly. […]

[13] = MDA-MB-231 (parental), compared with GLS2 clones, 6 days
[14] = MDA-MB-231, proliferation over 6 days
[15] = MDA-MB-231 GLS2 clone 1, 6 days
[16] = MDA-MB-231 GLS2 clone 2, 6 days

| EC50 ([8]; MDA-MB-231 with ectopic expression of GLS2, 6 days) [µM] | SMILES | EC50 [1] [µM] | EC50 [2] [µM] | EC50 [3] [µM] | EC50 [4, 13] [µM] | EC50 [4, 14] [µM] | EC50 [5] [µM] | EC50 [6] [µM] | EC50 [7] [µM] | EC50 [8, 15] [µM] | EC50 [8, 16] [µM] | EC50 [9] [µM] | EC50 ([10]; TSE GLS2 clone 1, 6 days) [µM] | EC50 ([10]; TSE GLS2 clone 2, 6 days) [µM] | EC50 ([10]; TSE with ectopic expression of GLS2, 6 days) [µM] | EC50 [11] [µM] | tumor growth [12] |
| --- | --- | --- | --- | --- | --- | --- | --- | --- | --- | --- | --- | --- | --- | --- | --- | --- | --- |
| > 20 | O=C(Cc1ccccc1)Nc1nnc(CCSCCc2nnc(NC(=O)Cc3ccccc3)s2)s1 [BPTES] | ~20 | ~20 | ~20 | 2 | 2.1 | 3.7 | 4.7 | 1.3 | > 20 | > 20 | 4 | > 20 | > 20 | > 20 | > 20 | did not significantly impact tumor growth |
| – | CN(C)c1ccc(C2Nc3ccc4ccccc4c3C3=C2C(=O)CC(C)(C)C3)cc1Br (centres unmarked) [Compound 968] | 4 | 4 | 3 | 4 | 5 | 4 | 4 | 2 | 4 | 5 | 2 | 7 | 6 | – | 4 | robustly inhibited |
